Excerpt: An algorithm was developed to correlate a known oral dose of methotrexate to a jet injector dose. Table 1 illustrates the calculated correlation between oral doses and needle-assisted jet injector doses of methotrexate. The second column illustrates the precise subcutaneous dose calculated based on the algorithm, described in detail below. The third column represents the administrable dose, based on commercially available doses, closest in value to the precise calculated dose.
Based on the data set forth in table 1, a line equation of y=mx+b was developed to correlate an oral dose of methotrexate to an equivalent dose for use with a jet injector. In the present equation, illustrated by the graph shown in FIG. 1, the slope, m, was determined to be 0.6101 and a y-intercept, b, to be 2.9274. The correlation coefficient of the line, R^2, is 0.9594.

SMILES: CN(Cc1cnc2nc(N)nc(N)c2n1)c1ccc(C(=O)N[C@@H](CCC(=O)O)C(=O)O)cc1 [methotrexate]
- slope, m, of line equation y=mx+b correlating oral dose to equivalent jet injector dose: 0.6101
- y-intercept, b, of line equation y=mx+b correlating oral dose to equivalent jet injector dose: 2.9274
